Assay [1] concerns MDA-MB-435 cells. Nature of the assay: Binding of MDA-MB-435 cells to immobilized CN. As to conditions: CN at 0.1 μg/well; read-out: IC50 for blocking binding of MDA-MB-435 cells to immobilized CN. The assay is classed as cell-based, human. The procedure:
The effect of CN on binding of highly metastatic human breast cancer cells, MDA-MB-435 cell line, to ECM proteins was examined. Human fibronectin and vitronectin were immobilized in the wells of 96-well microtiter plates. […] In a variation of the above experiments, CN was immobilized. […] Referring to FIGS. 12 and 13, varying concentrations of GRGDSP (FIG. 12) or EDTA (FIG. 13) were used to inhibit binding of human mammary carcinoma cells to immobilized CN. CN was at 0.1 μg/well. The vertical line at each data point indicates the y-axis error bar. All experiments were conducted as three sets of triplicates for each data point.

The test system of assay [2] is MDA-MB-435 cells. Nature of the assay: Phosphotyrosine immunoblot, MDA-MB-435 cells. Format: cell-based, human. The procedure:
(§1) Cell culture, preparation and stimulation—T24 cells were maintained in RPMI 1640 medium containing 5% fetal bovine serum, and MDA-MB-435 and 293 cells were maintained in Dulbecco's modified Eagle's medium with 10% serum at 37° C. in 5% CO2. Cells were washed with phosphate-buffered saline (PBS) and starved in the appropriate serum-free medium for 6 h at 37° C. Cells were detached by brief treatment with 0.05% trypsin/0.02% EDTA in PBS and collected by centrifugation, resuspended in soybean trypsin inhibitor (1 mg/ml in serum-free medium), and washed in 2% bovine serum albumin/serum-free medium. Cells were maintained in suspension for 1 h in 2% bovine serum albumin/serum-free medium at 37° C. with end-over-end agitation. Quiescent cells (3×10^6/ml) were treated with disintegrins or other reagents while in suspension, or were allowed to adhere to Matrigel (Becton Dickinson, Bedford, Mass.) diluted 1:100 with serum-free medium during treatment.
Lysate preparation and immunoprecipitation—Suspended and adherent cells were washed twice with cold PBS and lysed in cold lysis buffer (50 mM Tris, pH 8.0, 150 mM NaCl, 1% Nonidet P-40, 0.5% deoxycholate, 0.1% SDS, protease inhibitor cocktail, 1 mM sodium pyrophosphate, 1 mM sodium orthovanadate, 50 mM sodium fluoride). After 10-15 min incubation on ice, insoluble material was removed by centrifugation at 14,000 RPM in a microcentrifuge for 15 min. Supernatants were collected and total protein concentrations standardized by the BCA protein assay (Pierce, Rockford, Ill.). Immunoprecipitation was carried out by incubating whole cell lysates (200 μg total protein) with 1.25 μg anti-FAK or anti-CAS mAb 4-6 h at 4° C. followed by 20 μl protein G-agarose overnight at 4° C. Immunoprecipitates were washed 4 times in lysis buffer without inhibitors and dissociated by adding SDS-PAGE sample buffer and boiling 5 min. Whole cell lysates (30 μg total protein) or immunoprecipitates were resolved by 7.5% SDS-polyacrylamide gel electrophoresis and transferred to nitrocellulose membranes. […]
(Immunoblotting shows a protein as a band on a membrane.)

The subject of a further assay is T24 cells. Nature of the assay: Phosphotyrosine immunoblot, T24 cells. The assay is classed as cell-based, human. To be noted: pretreated 30 min, 10 nM contortrostatin. Here is the method: as §1
Lysate preparation and immunoprecipitation—Suspended and adherent cells were washed twice with cold PBS and lysed in cold lysis buffer (50 mM Tris, pH 8.0, 150 mM NaCl, 1% Nonidet P-40, 0.5% deoxycholate, 0.1% SDS, protease inhibitor cocktail, 1 mM sodium pyrophosphate, 1 mM sodium orthovanadate, 50 mM sodium fluoride). […]

Assay [3] deals with coronary artery thrombosis. As to conditions: with recombinant tPA and heparin; cited from earlier work.
For assay [4], the system named is acute thrombotic reocclusion. To be noted: added to heparin plus tPA; cited from earlier work.
A further assay has as its system platelets. As to conditions: measured by e.g. serotonin release from dense granules; cited from earlier work.
For assay [5], the system named is canine carotid artery thrombosis model. Nature of the assay: Reoccluding canine carotid artery thrombosis model. The assay is classed as in vivo. An excerpt: The model of carotid artery thrombosis in the anesthetized canine described is a modification of one developed for the study of experimentally-induced coronary artery thrombosis [Romson, J. L. et al., Thromb. Res. 17:841 (1980)]. The experimental procedure results in the formation of a platelet rich intravascular thrombus at the site of an electrolytically-induced endothelial lesion in proximity to a distal arterial stenosis. The carotid artery is selected for the experimental model, thereby allowing one vessel to be used as a control and the other to be used after administration of the thrombolytic and antithrombotic therapy. APSAC (anisoylated plasminogen streptokinase activator complex) has been used as the thrombolytic agent successfully in this model. […] The lytic-antithrombotic combination of agents may then be administered to only one of the occluded vessels; this allows for an internal control and eliminates those animals that may not form thrombi due to causes unrelated to the vessel wall injury and subsequent occlusive thrombus formation, i.e., low circulating platelet counts, enhanced spontaneous thrombolysis, presence of heart worms, etc. Parameters which are recorded include repeated measures of: phasic and mean carotid artery blood flow velocity using an ultrasonic flow probe, time to thrombotic occlusion, time to recannulization, ex vivo platelet aggregation, prothrombin time, thrombin time, activated partial thromboplastin time, red cell and white cell counts, hematocrit, EKG profile and body temperature, before and after administration of APSAC or APSAC plus CN to separate groups of animals.
Conditioned male mongrel dogs (8-10 kg) have been used for all in vivo studies. Dogs are anesthetized with sodium pentobarbital, intubated and allowed to breath room air under positive pressure respiration. Arterial blood gasses and pH determinations are made every 45 minutes and appropriate adjustments made to maintain the blood gasses and arterial pH within normal limits. Both common carotid arteries and the right internal jugular vein are exposed. A catheter is inserted into the jugular vein for blood sampling and administration of the test drug. Arterial blood pressure is monitored from the cannulated femoral artery with the use of a blood pressure transducer. A Doppler flow probe is placed on each common carotid artery proximal to both the point of insertion of the intraarterial electrode and the mechanical constrictor. […] Blood flow velocity in the carotid vessels is monitored continuously. […]
Electrolytic injury to the intimal surface of each carotid vessel is accomplished with the use of an intravascular electrode. […] The current delivered to each vessel is monitored continuously and maintained at 300 μA. […]

Several values for one entry are separate records, joined by “and”; a condition that tells them apart may be missing. Equal entries are not always repeated.

In general, IC50 refers to the concentration at which inhibition is half-maximal.

On to `O=C(O)CN(CCN(CC(=O)O)CC(=O)O)CC(=O)O` [EDTA], for which, in the assay on MDA-MB-435 cells [1], the IC50 worked out at 800 µM.
For the compound `Cc1ccc(-c2nn(C(C)(C)C)c3ncnc(N)c23)cc1` [PP1, reference compound], in the assay on MDA-MB-435 cells [2] (pretreated 30 min, 10 nM contortrostatin), the “concentration for complete inhibition of contortrostatin-induced tyrosine phosphorylation” value was found to be 10 µM. Also, the “concentration for complete elimination of contortrostatin-induced signals” value in the assay on T24 cells was 100 µM.
kistrin: the “effective dose sufficient to prevent reocclusion” value in assay [3] was 4 µg/kg/min.
With “echistatin (QCESGPCCRNCKFLKEGTICKRARGDDMDDYCNGKTCDCPRNPHKGPAT) [reference compound]”, in the assay with MDA-MB-435 cells [2] (1 μM, added simultaneously, 10 min), the “effect on contortrostatin (10 nM)-induced tyrosine phosphorylation” value is “completely abrogated”. Also, the “effect alone on tyrosine phosphorylation” value in the assay with MDA-MB-435 cells [2] (concentrations up to 1 μM) is “no effect on tyrosine phosphorylation”. Besides, the “incidence of acute thrombotic reocclusion” value in assay [4] is recorded as “dramatic reductions in the incidence of acute thrombotic reocclusion”.
Take applaggin: the platelet release entry with platelets is “also inhibits platelet release”.
As to “anisoylated plasminogen streptokinase activator complex [APSAC]”, the “RCA Thrombus, weight of residual thrombus, individual dog” value in assay [5] (Dog # 1-6, listed as APSAC Control) is 27.3 mg and 47.6 mg and 90.5 mg and 60.1 mg and 67.5 mg and 78.5 mg. Moreover, in assay [5] (dog, in vivo), the “carotid artery patency after infusion” value was “reoccluded and remained closed for the duration of the study”. In assay [5] (group mean), the “RCA Thrombus, weight of residual thrombus, Mean” value is 61.9 mg and the “Thrombus weight per kg (dog weight)” value is given as 4.1.

The record behind these values is patent publication US6710030B1, “Contortrostain (CN) and methods for its use in preventing metastasis and other conditions” (University of Southern California, priority 1993, dated 2004).
